A word on the IC50: it is the concentration at which inhibition is half-maximal. Lower therefore signals greater potency.

Each structure is given as a SMILES string. Counter-ions that a name gives are not always drawn. A value given as a limit tells only on which side of the number the result lay.

In this assay the target is T1, HCV polymerase (Hepatitis C virus genotype 1b, UniProt P26663).
T1 construct: a region encoding NS5B (J Virol 1991 March, 65(3), 1105-13, 544 amino acids after deletion of 47 amino acids on the C-terminal); 6xHis (C); made in house; host or cells: Escherichia coli
T1 sequence (P26663 2420-2963): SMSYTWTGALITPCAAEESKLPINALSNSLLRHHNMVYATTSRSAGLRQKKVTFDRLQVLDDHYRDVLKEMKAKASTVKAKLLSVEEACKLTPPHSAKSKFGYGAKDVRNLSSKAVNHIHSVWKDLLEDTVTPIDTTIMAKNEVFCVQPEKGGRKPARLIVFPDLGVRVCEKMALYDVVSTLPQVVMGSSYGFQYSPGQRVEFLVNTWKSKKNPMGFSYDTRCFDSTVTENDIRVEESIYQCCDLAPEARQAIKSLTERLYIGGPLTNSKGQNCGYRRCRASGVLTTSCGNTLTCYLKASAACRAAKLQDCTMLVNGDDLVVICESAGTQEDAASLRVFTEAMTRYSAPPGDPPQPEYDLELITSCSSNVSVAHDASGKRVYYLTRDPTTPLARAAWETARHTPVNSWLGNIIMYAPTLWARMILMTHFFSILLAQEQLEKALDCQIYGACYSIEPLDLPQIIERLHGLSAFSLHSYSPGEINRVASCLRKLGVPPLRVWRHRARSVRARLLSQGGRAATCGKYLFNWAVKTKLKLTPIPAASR
Briefly: biochemical. Further details: species or system HCV BK strain. A digest of the protocol: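 Recombinant HCV BK-strain NS5B (C-terminal 47 aa deleted, His6-tagged, E. coli), 0.5 μg/ml, run with 5 μg/ml in vitro-transcribed RNA template (polyU/3′X), ATP/GTP/CTP 50 μM, UTP 2 μM plus [3H]UTP, pH 7.5, 25° C, 90 min. TCA-precipitated RNA counted by scintillation; IC50 from activity with vs without compound.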
Consider `CN(C)C(=O)CNc1cccc2c1OCCn1c-2c(C2CCCCC2)c2ccc(C(=O)O)cc21` [Example 2-176, 12-cyclohexyl-4-(dimethylcarbamoylmethylamino)-6,7-dihydro-5-oxa-7a-azadibenzo[a,e]azulene-9-carboxylic acid], for which the IC50 is under 100 nM.

`CC(C)(NC(=O)c1ccc2c(C3CCCCC3)c3n(c2c1)CCOc1ccccc1-3)C(=O)N[C@H]1CC[C@H](O)CC1` [Example 2-177, N-[1-(trans-4-hydroxycyclohexylcarbamoyl)-1-methylethyl]-12-cyclohexyl-6,7-dihydro-5-oxa-7a-azadibenzo[a,e]azulene-9-carboxamide] showed an IC50 of under 100 nM.

`CCN(C(=O)CN1CCCCC1)c1cccc2c1OCCn1c-2c(C2CCCCC2)c2ccc(C(=O)O)cc21` [Example 2-178, 12-cyclohexyl-4-{N-ethyl-N-[2-(piperidin-1-yl)acetyl]amino}-6,7-dihydro-5-oxa-7a-azadibenzo[a,e]azulene-9-carboxylic acid monohydrochloride] returned an IC50 of under 100 nM.

Turning to `O=C(Nc1ccc(OCc2ccccc2)cc1)c1ccc2c(C3CCCCC3)c3n(c2c1)CCOc1ccccc1-3` [Example 2-179, N-(4-benzyloxyphenyl)-12-cyclohexyl-6,7-dihydro-5-oxa-7a-azadibenzo[a,e]azulene-9-carboxamide], the IC50 is 100 to 1000 nM.

As to `O=C(N[C@@H](Cc1ccc(O)cc1)C(=O)O)c1ccc2c(C3CCCCC3)c3n(c2c1)CCOc1ccccc1-3` [Example 2-180, (S)-2-[(12-cyclohexyl-6,7-dihydro-5-oxa-7a-azadibenzo[a,e]azulene-9-carbonyl)amino]-3-(4-hydroxyphenyl)propionic acid], the IC50 is under 100 nM.

Molecule `CC(=O)N1CCC(NC(=O)c2ccc3c(C4CCCCC4)c4n(c3c2)CCOc2ccccc2-4)(C(=O)O)CC1` [Example 2-181, 1-acetyl-4-[(12-cyclohexyl-6,7-dihydro-5-oxa-7a-azadibenzo[a,e]azulene-9-carbonyl)amino]piperidine-4-carboxylic acid] showed an IC50 of under 100 nM.

In the case of `CN1CCC(NC(=O)c2ccc3c(C4CCCCC4)c4n(c3c2)CCOc2ccccc2-4)(C(=O)O)CC1` [Example 2-182, 4-[(12-cyclohexyl-6,7-dihydro-5-oxa-7a-azadibenzo[a,e]azulene-9-carbonyl)amino]-1-methylpiperidine-4-carboxylic acid], the IC50 was under 100 nM.

Molecule `CC(C)(CNc1ccc(C(=O)O)cc1)NC(=O)c1ccc2c(C3CCCCC3)c3n(c2c1)CCOc1ccccc1-3` [Example 2-183, 4-{2-[(12-cyclohexyl-6,7-dihydro-5-oxa-7a-azadibenzo[a,e]azulene-9-carbonyl)amino]-2-methylpropylamino}benzoic acid] came in with an IC50 of under 100 nM.

For `CC(C)(CNc1ccc(C(N)=O)cc1)NC(=O)c1ccc2c(C3CCCCC3)c3n(c2c1)CCOc1ccccc1-3` [Example 2-184, N-[2-(4-carbamoylphenylamino)-1,1-dimethylethyl]-12-cyclohexyl-6,7-dihydro-5-oxa-7a-azadibenzo[a,e]azulene-9-carboxamide], the IC50 was under 100 nM.

The molecule `CC(C)(CNC(=O)OC(C)(C)C)NC(=O)c1ccc2c(C3CCCCC3)c3n(c2c1)CCOc1ccccc1-3` [Example 2-185, tert-butyl {2-[(12-cyclohexyl-6,7-dihydro-5-oxa-7a-azadibenzo[a,e]azulene-9-carbonyl)amino]-2-methylpropyl}carbamate] returned an IC50 of 100 to 1000 nM.

As for `CC(C)(CN)NC(=O)c1ccc2c(C3CCCCC3)c3n(c2c1)CCOc1ccccc1-3` [Example 2-186, N-(2-amino-1,1-dimethylethyl)-12-cyclohexyl-6,7-dihydro-5-oxa-7a-azadibenzo[a,e]azulene-9-carboxamide monohydrochloride], the IC50 is 100 to 1000 nM.

As for `CC(C)(CNCC(=O)O)NC(=O)c1ccc2c(C3CCCCC3)c3n(c2c1)CCOc1ccccc1-3` [Example 2-187, (2-[(12-cyclohexyl-6,7-dihydro-5-oxa-7a-azadibenzo[a,e]azulene-9-carbonyl)amino]-2-methylpropylamino)acetic acid], the IC50 lay in the range of 100 to 1000 nM.

`CC(C)(COc1ccc([N+](=O)[O-])cc1)NC(=O)c1ccc2c(C3CCCCC3)c3n(c2c1)CCOc1ccccc1-3` [Example 2-188, N-[1,1-dimethyl-2-(4-nitrophenoxy)ethyl]-12-cyclohexyl-6,7-dihydro-5-oxa-7a-azadibenzo[a,e]azulene-9-carboxamide] registered an IC50 of 100 to 1000 nM.

As to `CN(C)CC(C)(NC(=O)c1ccc2c(C3CCCCC3)c3n(c2c1)CCOc1ccccc1-3)C(=O)O` (stereo not shown) [Example 2-189, 2-[(12-cyclohexyl-6,7-dihydro-5-oxa-7a-azadibenzo[a,e]azulene-9-carbonyl)amino]-3-dimethylamino-2-methylpropionic acid], the IC50 was 100 to 1000 nM.

In turn, `CC(C)(NC(=O)c1ccc2c(C3CCCCC3)c3n(c2c1)CCOc1ccccc1-3)C(=O)N1CCC(O)CC1` [Example 2-190, N-[2-(4-hydroxypiperidin-1-yl)-1,1-dimethyl-2-oxoethyl]-12-cyclohexyl-6,7-dihydro-5-oxa-7a-azadibenzo[a,e]azulene-9-carboxamide] came in with an IC50 of under 100 nM.

The molecule `O=C(O)c1ccc2c(C3CCCCC3)c3n(c2c1)CCOc1c-3cccc1N(CCN1CCCCC1)Cc1ccccc1` [Example 2-191, 4-{N-benzyl-N-[2-(piperidin-1-yl)ethyl]amino}-12-cyclohexyl-6,7-dihydro-5-oxa-7a-azadibenzo[a,e]azulene-9-carboxylic acid dihydrochloride] showed an IC50 of under 100 nM.

As for `O=C(Nc1ccc(O)cc1)c1ccc2c(C3CCCCC3)c3n(c2c1)CCOc1ccccc1-3` [Example 2-192, N-(4-hydroxyphenyl)-12-cyclohexyl-6,7-dihydro-5-oxa-7a-azadibenzo[a,e]azulene-9-carboxamide], the IC50 is under 100 nM.

Regarding `CC(C)(NC(=O)c1ccc2c(C3CCCCC3)c3n(c2c1)CCOc1ccccc1-3)C(=O)Nc1ccc(C(N)=O)cc1` [Example 2-193, N-[1-(4-carbamoylphenylcarbamoyl)-1-methylethyl]-12-cyclohexyl-6,7-dihydro-5-oxa-7a-azadibenzo[a,e]azulene-9-carboxamide], the IC50 is under 100 nM.

`CN(C)C(=O)c1ccc(NC(=O)C(C)(C)NC(=O)c2ccc3c(C4CCCCC4)c4n(c3c2)CCOc2ccccc2-4)cc1` [Example 2-194, N-[1-(4-dimethylcarbamoylphenylcarbamoyl)-1-methylethyl]-12-cyclohexyl-6,7-dihydro-5-oxa-7a-azadibenzo[a,e]azulene-9-carboxamide] returned a concentration for half-maximal inhibition (IC50) of under 100 nM.

On to `CC(C)(NC(=O)c1ccc2c(C3CCCCC3)c3n(c2c1)CCOc1ccccc1-3)C(=O)Nc1ccc(CO)cc1` [Example 2-195, N-[1-(4-hydroxymethylphenylcarbamoyl)-1-methylethyl]-12-cyclohexyl-6,7-dihydro-5-oxa-7a-azadibenzo[a,e]azulene-9-carboxamide], for which the IC50 was under 100 nM.

For `COC(=O)c1ccc2nc(C(C)(C)NC(=O)c3ccc4c(C5CCCCC5)c5n(c4c3)CCOc3ccccc3-5)[nH]c2c1` [Example 2-196, methyl 2-{1-[(12-cyclohexyl-6,7-dihydro-5-oxa-7a-azadibenzo[a,e]azulene-9-carbonyl)amino]-1-methylethyl}-3H-benzimidazole-5-carboxylate], the IC50 is under 100 nM.

`O=C(O)c1ccc2nc(CNC(=O)c3ccc4c(C5CCCCC5)c5n(c4c3)CCOc3ccccc3-5)[nH]c2c1` [Example 2-197, 2-{[(12-cyclohexyl-6,7-dihydro-5-oxa-7a-azadibenzo[a,e]azulene-9-carbonyl)amino]methyl}-3H-benzimidazole-5-carboxylic acid] had an IC50 of under 100 nM.

Consider `CC(C)(NC(=O)c1ccc2c(C3CCCCC3)c3n(c2c1)CCOc1ccccc1-3)c1nc2ccccc2[nH]1` [Example 2-198, N-[1-(1H-benzimidazol-2-yl)-1-methylethyl]-12-cyclohexyl-6,7-dihydro-5-oxa-7a-azadibenzo[a,e]azulene-9-carboxamide], for which the IC50 was under 100 nM.

In the case of `CC(C)(NC(=O)c1ccc2c(C3CCCCC3)c3n(c2c1)CCOc1ccccc1-3)c1nc2cc(Cl)ccc2[nH]1` [Example 2-199, N-[1-(5-chloro-1H-benzimidazol-2-yl)-1-methylethyl]-12-cyclohexyl-6,7-dihydro-5-oxa-7a-azadibenzo[a,e]azulene-9-carboxamide], the IC50 was under 100 nM.

In the case of `Cc1ccc(NC(=O)C(C)(C)NC(=O)c2ccc3c(C4CCCCC4)c4n(c3c2)CCOc2ccccc2-4)cc1C(=O)O` [Example 2-200, 5-{2-[(12-cyclohexyl-6,7-dihydro-5-oxa-7a-azadibenzo[a,e]azulene-9-carbonyl)amino]-2-methylpropionylamino}-2-methylbenzoic acid], the IC50 is under 100 nM.

Take `CC(C)(NC(=O)c1ccc2c(C3CCCCC3)c3n(c2c1)CCOc1ccccc1-3)C(=O)Nc1cccc(C(=O)O)c1` [Example 2-201, 3-{2-[(12-cyclohexyl-6,7-dihydro-5-oxa-7a-azadibenzo[a,e]azulene-9-carbonyl)amino]-2-methylpropionylamino}benzoic acid]: the IC50 is under 100 nM.

As for `CC(C)(NC(=O)c1ccc2c(C3CCCCC3)c3n(c2c1)CCOc1ccccc1-3)C(=O)Nc1ccc(O)cc1` [Example 2-202, N-[1-(4-hydroxyphenylcarbamoyl)-1-methylethyl]-12-cyclohexyl-6,7-dihydro-5-oxa-7a-azadibenzo[a,e]azulene-9-carboxamide], the IC50 was under 100 nM.

The molecule `CC(C)(NC(=O)c1ccc2c(C3CCCCC3)c3n(c2c1)CCOc1ccccc1-3)C(=O)NCCc1ccc(O)cc1` [Example 2-203, N-{1-[2-(4-hydroxyphenyl)ethylcarbamoyl]-1-methylethyl}-12-cyclohexyl-6,7-dihydro-5-oxa-7a-azadibenzo[a,e]azulene-9-carboxamide] yielded a 50% inhibitory concentration (IC50) of under 100 nM.

(Values after patent US20070049593A1 (priority 2004, published 2007).)
